Measurements as given in patent US20200222418A1, “USE OF PHENOTHIAZINE DERIVATIVE IN THE TREATMENT OF INFECTION CAUSED BY BACTERIA CARRYING TYPE IV PILI” (priority 2017, published 2020).

How the values were obtained:
[1] = test system: N. meningitidis 2C4.3 aggregates; assay type: cell-based, Neisseria meningitidis; conditions: for effect on dispersion of meningococcal aggregates: 0.5 to 80 μM, 30 min
Method: N. meningitidis 2C4.3 was grown in liquid culture at 10^7 CFU/ml for 2 h to form bacterial aggregates and were treated with increasing concentrations of Trifluoperazine (10 to 40 μM), Gentamicin (150 μg/ml) or cefotaxim (20 μg/ml) for 20 minutes and bacterial aggregates were immediately visualized using a phase-contrast microscope. […] (B) Quantification of the bacterial aggregation was performed using Image J software.
N. meningitidis 2C4.3 wild type strain and the isogenic derivative mutant PilT ([…]PiIT) were grown in liquid culture at 10^7 CFU/ml for 2 h to form bacterial aggregates and then treated with 50 μM Trifluoperazine. Time lapse phase-contrast video microscopy was performed to visualize the effect on bacterial aggregates over time. Images were taken at the indicated time points of the video.
N. meningitidis 2C4.3 was grown in liquid culture at 10^7 CFU/ml for 2 h to form bacterial aggregates and were treated with 30 μM Trifluoperazine for 30 minutes to induce bacterial dispersion or PBS as a control. The medium was replaced to remove the Trifluoperazine and the reformation of bacterial aggregates were visualized overtime using a phase-contrast microscope.
Bacteria were grown in suspension for 2 h then Phenothiazine derivatives were added at the indicated concentrations.
N. meninigitidis 2C4.3 strain was grown in suspension in wells of a 24 well plate, containing 1 ml of DMEM medium supplemented with 10% heat-inactivated fetal calf serum. After 2 h of growth, Trifluoperazine (or control vehicle) was added at various concentrations ranging from 10 to 40 μM for 20 min and the bacterial aggregates were visualized over time using a phase-contrast microscope.
N. meninigitidis 2C4.3 strain was grown in suspension in wells of a 24 well plate, containing 1 ml of DMEM medium supplemented with 10% heat-inactivated fetal calf serum. After 2 h of growth, various concentrations (0.5 to 80 μM) of phenothiazine-derivative compounds or control vehicle (PBS or DMSO) were added to the wells for 30 min and the bacterial aggregates were visualized using a phase-contrast microscope. Were tested phenothiazine-derivative compounds of: • the Piperazine group: Trifluoperazine (Sigma #T8516), Fluphenazine (Sigma #F4765), Prochlorperazine (Sigma #P9178) Perphenazine (Sigma #P6402); • the Piperidine group: Thioridazine (Sigma #T9025) and Mesoridazin (Sigma #M4068); • the Aliphatic group: Chlorpromazine (Sigma #C8138), Promazine (Sigma #P6656), Triflupromazine (Sigma #1686003) and levomepromazine (Sigma #L0500000).

[2] = test system: Nm2C4.3 microcolonies on HBMEC, human bone marrow endothelial cell line; test: Dispersion of meningococcal microcolonies on HBMEC (vascular colonisation index); assay type: cell-based, Neisseria meningitidis; conditions: 30 min, Trifluoperazine 10-40 μM, Gentamicin 150 μg/ml, Cefotaxim 20 μg/ml
Method: Human […] microvascular endothelial cells (HBMEC) were infected with Nm2C4.3 for 1 h 30, treated with Trifluoperazine (10-40 μM) for 30 minutes, before fixation and immunofluorescence analysis using anti-Nm2C4.3 antibody and Alexa Fluor 633 Phalloidin. (A) Representative fluorescence microscopy showing bacterial colony (white dots) formed at the surface of the endothelial cells. (B) Quantification of the bacterial colonization was performed using Image J software.
HBMEC, a human endothelial cell line isolated from […] capillaries (Schweitzer et al., 1997) were grown in Dulbecco's Modified Eagle Medium (DMEM) 4.5 g/L-Glutamax (ThermoFischer) 10% FBS. Cells were grown on Thermanox coverslips coated with gelatin 2% (BD Difco #214340) for 2 days to reach confluency. Cells were then infected with a suspension of Nm2C4.3 (˜10^7 CFU/ml) in DMEM/FBS during 30 minutes to allow bacterial adhesion. Cells were then washed three times with medium to remove non-adherent bacteria and infection was pursued for 1 h 30: adherent bacteria grew at the endothelial cell surface and formed micro-colonies. Trifluoperazine was then added to obtain final concentrations of 10, 20, 30 and 40 μM. After incubation for 30 minutes, cells were washed and fixed in 4% Paraformaldehyde for 10 min, washed three times with PBS, and permeabilized with 0.1% Triton X-100 in PBS for 10 min. Cells were blocked for 30 min with 3% BSA in PBS and were incubated for 2 h with the primary antibodies (Rabbit polyclonal anti-Nm2C4.3 strain, kindly provided by Dr X. Nassif, INEM, Paris). After three washes with PBS, cells were incubated for 1 h with […] anti-rabbit IgG (Jackson ImmunoResearch Laboratories), together with Alexa Fluor 633 Phalloidin (Thermofischer) and DAPI ([…], Sigma Aldrich) to stain Actin and nuclei, respectively. Labelled preparations were mounted in Glycergel media (DAKO) and image acquisitions were performed with a DM16000 microscope (Leica, X40). Quantification was done with ImageJ software (NIH). […]

[3] = test system: meningococcal colonization of the human dermal vasculature; test: In vivo meningococcal infection of mice engrafted with human skin

Structure (SMILES)	effect on dispersion of meningococcal aggregates [1]	dispersion of bacterial aggregates formed in suspension ([1]; aggregates pre-formed 2 h, 20 min, Trifluoperazine 10-40 μM, Gentamicin 150 μg/ml, Cefotaxim 20 μg/ml)	dispersion of compact meningococcal microcolonies established at the endothelial cell surface [2]	increase of inflammatory response [3] [fold]
CN(C)CCCN1c2ccccc2Sc2ccc(C(F)(F)F)cc21 [Triflupromazine]	no effects	–	–	–
CN(C)CCCN1c2ccccc2Sc2ccccc21 [Promazine]	inhibited bacterial aggregation with better efficacy than Trifluoperazine	–	–	–
CO/N=C(\C(=O)N[C@@H]1C(=O)N2C(C(=O)O)=C(COC(C)=O)CS[C@H]12)c1csc(N)n1 [Cefotaxim]	–	did not significantly induce the dispersion	poorly induced the dispersion	2
CN(C)CCCN1c2ccccc2Sc2ccc(Cl)cc21 [Chlorpromazine]	no effects	–	–	–
COc1ccc2c(c1)N(C[C@H](C)CN(C)C)c1ccccc1S2 [Levomepromazine]	no effects	–	–	–
